The values below come from PubChem BioAssay (NCI).

Some test systems named below: UACC-257 melanoma; HS 578T breast; HT29 colon; KM12 colon; NCI-H226 lung; M14 melanoma; IGROV1 ovarian; MDA-N; HCT-116 colon; CCRF-CEM leukemia; U251 CNS; PC-3 prostate; MALME-3M melanoma.
Experiment in all cases: inhibition of tumour cell growth, NCI panel, 48 h

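A five-concentration, 48-hour dose response in 96-well plates underlies each endpoint, interpolated linearly between surrounding concentrations. TGI: total growth inhibition.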

For the molecule `Cn1c2ccccc2c2c3c(=O)[nH][nH]c(=O)c3c3c4ccccc4n(C)c3c21`, the TGI in the assay on UACC-257 melanoma, with HS 578T breast, with HT29 colon, with KM12 colon, in the assay with NCI-H226 lung and in the assay with M14 melanoma was over 100 µM each time. Further, the TGI in the assay on IGROV1 ovarian, in the assay on MDA-N, with HCT-116 colon, with CCRF-CEM leukemia, with U251 CNS and with PC-3 prostate was over 100 µM in each case. The same molecule registered a TGI with MALME-3M melanoma of over 100 µM.
With `COc1ccc2c(c1)CCC(CN1CCN(CCOC(c3ccccc3)c3ccccc3)CC1)C2O` (stereo not drawn), the TGI in the assay with UACC-257 melanoma was 27.2 µM; in the assay on HS 578T breast, 41.3 µM; in the assay on HT29 colon, 18.2 µM; in the assay on KM12 colon, 44.6 µM; with NCI-H226 lung, 34.1 µM; in the assay with M14 melanoma it was 29.1 µM. Also, the TGI with IGROV1 ovarian is 30.1 µM; in the assay with MDA-N, 28.1 µM; with HCT-116 colon, 24.8 µM; in the assay on CCRF-CEM leukemia it was 53.4 µM; in the assay on U251 CNS, 28 µM; in the assay on PC-3 prostate, 26.3 µM. Moreover, the TGI in the assay with MALME-3M melanoma amounted to 32.4 µM.
On to `O=C1C=CC(=O)c2c(O)c(N3CCN(c4ncccn4)CC3)c(Cl)c(O)c21`, for which the TGI is 3.45 µM with UACC-257 melanoma; 7.12 µM with HS 578T breast; 6.73 µM with HT29 colon; 15.2 µM in the assay with KM12 colon; 44.8 µM in the assay on NCI-H226 lung; 3.45 µM in the assay with M14 melanoma. Also, the TGI in the assay with IGROV1 ovarian was 3.43 µM; in the assay with MDA-N, 3.75 µM; in the assay on HCT-116 colon, 3.14 µM; in the assay with CCRF-CEM leukemia, 4.24 µM; in the assay on U251 CNS it was 12 µM; with PC-3 prostate, 8.88 µM. The same molecule returned a TGI in the assay on MALME-3M melanoma of 3.63 µM.
For `O=C1CCCC2=C1CC1=C(CCCC1=O)N2c1ccc(-c2ccccc2)cc1`, the TGI with UACC-257 melanoma, in the assay with HS 578T breast, with HT29 colon, with KM12 colon, in the assay with NCI-H226 lung and in the assay with M14 melanoma was over 100 µM throughout. In addition, the TGI in the assay with IGROV1 ovarian, in the assay on MDA-N, with HCT-116 colon, in the assay with CCRF-CEM leukemia, with U251 CNS and in the assay with PC-3 prostate was over 100 µM in each case. The same molecule returned a TGI with MALME-3M melanoma of over 100 µM.
On to `C[N+]1(CCCCN2c3ccccc3Sc3cc(N=[N+]=[N-])ccc32)CCN(C(=O)CCNC(=O)Cc2ccc(C(=O)c3ccccc3)cc2)CC1`, for which the TGI in the assay with UACC-257 melanoma is over 75.8 µM; in the assay on HS 578T breast, over 83.1 µM; in the assay with HT29 colon, 52.6 µM; with KM12 colon it was 61.2 µM; in the assay with NCI-H226 lung, over 85.7 µM; in the assay with M14 melanoma it was over 72.9 µM. In addition, the TGI is over 77.6 µM with IGROV1 ovarian; over 71.9 µM with MDA-N; over 75.4 µM in the assay on HCT-116 colon; 64.2 µM in the assay with CCRF-CEM leukemia; over 87.3 µM with U251 CNS; 40.7 µM in the assay on PC-3 prostate. For the same molecule, the TGI in the assay on MALME-3M melanoma was found to be 70.8 µM.
Consider `CN(C)CN1C(=O)/C(=N\n2c(-c3ccncc3)n[nH]c2=S)c2ccccc21`, for which the TGI in the assay with UACC-257 melanoma was 32.9 µM; with HS 578T breast, over 100 µM; in the assay with HT29 colon, 61.5 µM; in the assay on KM12 colon, over 100 µM; with NCI-H226 lung, over 100 µM; with M14 melanoma, 70.4 µM. Further, the TGI in the assay on IGROV1 ovarian is over 100 µM; in the assay with MDA-N, 31.8 µM; in the assay on HCT-116 colon it was over 100 µM; with CCRF-CEM leukemia it was over 100 µM; in the assay with U251 CNS, over 100 µM; in the assay with PC-3 prostate, over 100 µM. In the assay with MALME-3M melanoma, this molecule returned a TGI of over 100 µM.
